The source of these data is US20100015126A1, “Methods of Binding of Cross-Beta Structures By Chaperones” (priority 2006, published 2010).

This assay addresses T1, BiP-Sepharose (Homo sapiens, UniProt P11021).
T1 construct: The human BiP gene except the signal peptide encoding region was obtained from Geneart (Germany); linker […]; made in house; host or cells: HEK 293E cells, transient transfection, PABC674 vector; secreted into the medium
The assay is described as follows: BiP-Sepharose extraction of proteins from patient plasma, serum, synovial fluid and mass-spectrometric identification. Format: binding. As to conditions: for Specific binding to BiP-Sepharose from control serum: compared to RA patient III. The protocol:
BiP was coated on CNBr-Sepharose (GE-Healthcare, Amersham Biosciences). Immobilization of BiP was performed essentially as described elsewhere in this application for NHS-Sepharose. CNBr-matrix was dissolved at 200 mg/ml in 1 mM HCl and treated the same as the NHS-matrix, except for an additional 5 minutes activation step in 1 mM HCl on a roller device before washing in this buffer. BiP was diluted in immobilization buffer (50 mM NaCl and 40 mM NaHCO3) to a concentration of 820 μg/ml. A total volume of 2 ml BiP solution (1640 μg BiP) was incubated with 360 mg beads. Negative control matrix was exposed to immobilization buffer, only. After overnight immobilization matrix was blocked with Tris and washed.
Six samples were incubated with the BiP-Sepharose, IgIV-Sepharose and the control-Sepharose: Normal pooled plasma, plasma of a patient I or of a patient II, with AL amyloidosis, serum of a patient III with RA (Rheumatoid Factor (RF) titer 682), control serum and synovial fluid of a patient IV with RA (RF titer 23). All samples were diluted 20× in HBS and applied to 200 μl beads in two volumes of 500 μl. One volume was incubated for 4 h at RT and supernatant was discarded after centrifugation (2 minutes at 1400 rpm). Subsequently, the second volume was applied to the same matrix and incubated overnight on a roller device at 4° C. […] To collect the eluates, the matrices were centrifuged and the two eluates were pooled for each sample.
Protein digests were desalted as described (Rappsilber et al., 2003), vacuum dried and dissolved in 2.5% formic acid.
For analysis of peptide mixtures, an Agilent 1100 HPLC system (Agilent Technologies) connected to a Thermo Finnigan LTQ-MS (Thermo Electron, Bremen, Germany) was used. Protein digests were injected on a trap column (Reprosil C18 RP (Dr Maisch, Germany), 20 mm×100 μm I.D.) at 5 μl/minute. Subsequently, the peptides were transferred with a split-reduced flow rate of 100 nL/minute solvent A (0.1 M acetic acid) on the analytical column (Reprosil C18 RP, 20 cm×50 μm I.D.). […] The column effluent was directly introduced into the ESI source of the mass spectrometer via a butt-connected nano-ESI emitter (New Objectives, Woburn, Mass.). The mass spectrometer was operated in the positive ion mode and parent ions were selected for fragmentation in data-dependent mode.
After mass spectrometric measurements, peak lists were generated using BioWorks software (Thermo Electron, Bremen, Germany). Protein identification was performed using Mascot software (www.matrixscience.com) by searching the IPIhuman database (version 3.24, downloaded from ftp://ftp.ebi.ac.uk/pub/databases/IPI/current) using the following settings: fully tryptic peptides, peptide tolerance 0.8 Da, MS/MS tolerance 0.9 Da, 1 missed cleavage allowed, carbamidomethyl (Cys) and oxidation (Met) as fixed and variable modification, respectively. The Scaffold software package (www.proteomesoftware.com) was used to parse the data and to filter peptides at a confidence level of 95%, allowing only protein identification with at least 2 peptides identified.

[1] abbreviates: Sample B3: eluate of BiP-Sepharose contacted with AL amyloidosis patient II plasma.
Setting [2] is: Sample B2: eluate of BiP-Sepharose contacted with AL amyloidosis patient I plasma.
The mark [3] stands for this setting: Sample B6: eluate of BiP-Sepharose contacted with RA patient IV synovial fluid.
The mark [4] stands for this setting: Sample B4: eluate of BiP-Sepharose contacted with RA patient III serum.
Setting [5] is: compared to AL amyloidosis patient I.
Where [6] appears, read: compared to AL amyloidosis patient II.

T1 sequence (P11021 19-654): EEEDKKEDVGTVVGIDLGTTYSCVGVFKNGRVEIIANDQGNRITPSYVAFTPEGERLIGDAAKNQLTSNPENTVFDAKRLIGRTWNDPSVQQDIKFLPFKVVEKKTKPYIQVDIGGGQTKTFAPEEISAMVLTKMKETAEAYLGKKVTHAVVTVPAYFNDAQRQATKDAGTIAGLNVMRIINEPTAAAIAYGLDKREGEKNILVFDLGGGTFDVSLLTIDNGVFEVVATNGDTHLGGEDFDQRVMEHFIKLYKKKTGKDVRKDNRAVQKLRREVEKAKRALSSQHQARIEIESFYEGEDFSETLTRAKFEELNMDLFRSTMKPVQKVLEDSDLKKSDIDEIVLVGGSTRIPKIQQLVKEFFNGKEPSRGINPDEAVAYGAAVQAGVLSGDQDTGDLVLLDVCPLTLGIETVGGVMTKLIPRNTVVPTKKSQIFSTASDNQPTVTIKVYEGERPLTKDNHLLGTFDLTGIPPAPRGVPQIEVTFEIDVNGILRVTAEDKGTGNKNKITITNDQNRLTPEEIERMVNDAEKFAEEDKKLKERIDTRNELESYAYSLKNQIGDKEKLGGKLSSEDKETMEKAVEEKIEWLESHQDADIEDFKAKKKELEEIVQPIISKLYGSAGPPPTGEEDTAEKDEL

Regarding “25 kDa protein/Immunoglobulin lambda locus [IPI00747752]”, the “# of peptides in sample A#” value under setting [1] turned out to be 8.
For the substance “25 kDa protein/immunoglobulin lambda chain/rheumatoid factor G9 light chain (lambda V3)/IGLC1 protein [IPI00154742]”, the “# of peptides in sample A#” value was 1 under setting [2] and 1 under setting [1].
Take “26 kDa protein/Immunoglobulin kappa variable 1-5 [IPI00430820]”: under setting [3], the “# of peptides in sample A#” value was 6.
As for “26 kDa protein/immunoglobulin kappa variable 1-5 [IPI00738024]”, the “# of peptides in sample A#” value runs as follows: under setting [2], 1; under setting [1], 1.
On to “187 kDa protein/Complement component 3 [IPI00164623]”, for which the “# of peptides in sample A#” value under setting [4] is recorded as 9.
With (sero)transferrin [IPI00022463], the “Specific binding to BiP-Sepharose from control serum” value was “specifically bound”. The “Specific binding to BiP-Sepharose from normal pooled plasma” value under setting [5] is listed as “specifically bound”.
For the substance “Alpha-1-antitrypsin precursor/Serpin peptidase inhibitor, clade A (alpha-1 antiproteinase, antitrypsin), member 1 [IPI00553177]”, under setting [4], the “# of peptides in sample A#” value came to 1.
Consider Alpha-2-macroglobulin [IPI00478003], for which the “Specific binding to BiP-Sepharose from normal pooled plasma” value was “specifically bound” under setting [5] and “specifically bound” under setting [6].
Turning to “Apolipoprotein E precursor/Apolipoprotein E/Apolipoprotein E3 (Fragment) [IPI00021842]”, the “# of peptides in sample A#” value under setting [2] is 6.
Turning to “Complement component 4 binding protein, alpha, C4b-binding protein alpha chain precursor (C4bp) (Proline-rich protein/PRP) [IPI00021727]”, under setting [4], the “# of peptides in sample A#” value was 7. Besides, the “Specific binding to BiP-Sepharose from normal pooled plasma” value under setting [6] is given as “specifically bound”.
Consider “Dynein heavy chain domain 3/KIAA1503 protein (Fragment) [IPI00783464]”, for which the “# of peptides in sample A#” value under setting [1] was 2.
For “Fc fragment of IgG binding protein (IgGFc-binding protein precursor/FcgammaBP/Fcgamma-binding protein antigen) [IPI00242956]”, under setting [2], the “# of peptides in sample A#” value worked out at 4.
With “Full-length cDNA clone CS0DL004YM19 of B cells (Ramos cell line) of Homo sapiens (Fragment)/Unnamed protein product [IPI00328493]”, the “# of peptides in sample A#” value under setting [4] worked out at 4.
Turning to “GCN1 general control of amino-acid synthesis 1-like 1 (yeast)/GCN1-like protein 1 (HsGCN1) [IPI00001159]”, under setting [4], the “# of peptides in sample A#” value was found to be 2.
For “Hypothetical protein DKFZp686N02209/immunoglobulin heavy constant gamma 1 (G1m marker) [IPI00384938]”, the “# of peptides in sample A#” value under setting [1] was 1.
Regarding “Hypothetical protein LOC651928/Immunoglobulin kappa variable 1-5/IGKV2-24 protein [IPI00440577]”, the “# of peptides in sample A#” value under setting [1] turned out to be 1 and the “# of peptides in sample A#” value under setting [4] is recorded as 1.
For Hypothetical protein [IPI00784983], the “# of peptides in sample A#” value by setting is: under setting [1], 2; under setting [3], 1.
Turning to Hypothetical protein [IPI00807428], the “# of peptides in sample A#” value under setting [2] was 1.
For the substance “Hypothetical protein/Heat shock 70 kDa protein 5 (glucose-regulated protein, 78 kDa = GRP78 = BiP = HSPA5) [IPI00003362]”, the “# of peptides in sample A#” value under setting [3] came out at 31.
Regarding “Hypothetical protein/Ig kappa chain V-II region RPMI 6410 precursor [IPI00550731]”, the “# of peptides in sample A#” value under setting [1] is listed as 1.
Consider “Hypothetical protein/immunoglobulin lambda locus/immunoglobulin lambda chain C regions (1/2/3)/immunoglobulin lambda variable V2-14/Ig lambda C3 protein (C2 segment protein, C3 segment protein)/Hypothetical protein DKFZp667J0B10 (Fragment) [IPI00760678]”, for which the “# of peptides in sample A#” value under setting [2] is 1.
Regarding “Hypothetical protein/immunoglobulin lambda variable 4-3 [IPI00382938]”, the “# of peptides in sample A#” value runs as follows: under setting [2], 1; under setting [1], 2.
Consider “IGLC1 protein (immunoglobulin lambda C1)/immunoglobulin lambda chain/immunoglobulin C1 segment protein (fragment) [IPI00719373]”, for which the “# of peptides in sample A#” value runs as follows: under setting [1], 1; under setting [4], 2; under setting [3], 1.
For the substance “IGLC2 protein (immunoglobulin lambda C2)/Immunoglobulin lambda [IPI00555945]”, the “# of peptides in sample A#” value under setting [2] was 1.
For “Ig heavy chain V-III region CAM [IPI00382482]”, under setting [3], the “# of peptides in sample A#” value worked out at 2.
On to “Ig heavy chain V-III region TUR/Ig heavy chain V-III region TIL [IPI00382478]”, for which the “# of peptides in sample A#” value under setting [4] was determined as 1.
Turning to “Ig kappa chain V-I region WEA/Similar to Ig kappa chain V-I region HK102 precursor/Ig kappa chain V-I region AU [IPI00003111]”, under setting [4], the “# of peptides in sample A#” value is 2.
On to “Immunoglobulin J chain, Immunoglobulin J polypeptide, linker protein for immunoglobulin alpha and mu polypeptides [IPI00178926]”, for which the “# of peptides in sample A#” value under setting [4] is recorded as 5.
As for “Immunoglobulin lambda variable 3-25/V2-17 protein (Fragment) [IPI00550162]”, the “# of peptides in sample A#” value by setting is: under setting [2], 8; under setting [4], 10.
Regarding “Isoform 1 of Plectin-1/Plectin 1 (intermediate filament binding protein 500 kDa, Hemidesmosomal protein 1/HD1) [IPI00014898]”, the “# of peptides in sample A#” value is 1 under setting [1] and 2 under setting [4].
As for “Isoform Long of Antigen KI-67/Antigen KI-67 [IPI00004233]”, under setting [2], the “# of peptides in sample A#” value is 1.
For the substance “Myosin-reactive immunoglobulin light chain variable region/Ig kappa chain V-III region VH precursor (Fragment) [IPI00024138]”, the “# of peptides in sample A#” value under setting [4] is recorded as 3.
Same read-out and setting: for “Phosphatase and actin regulator 4 isoform 1/Hypothetical protein DKFZp686L07205 [IPI00217851]” the value was 2.
For “Single-chain Fv (Fragment) [IPI00470652]”, the “# of peptides in sample A#” value under setting [1] turned out to be 2.
Consider “Vitronectin precursor (Serum-spreading factor/S-protein/V75 [Contains: Vitronectin V65 subunit; Vitronectin V10 subunit; Somatomedin B])/Vitronectin [IPI00298971]”, for which, under setting [4], the “# of peptides in sample A#” value came to 4.
Regarding clusterin isoform 1 [IPI00291262], the “Specific binding to BiP-Sepharose from control serum” value is on record as “specifically bound”. Also, the “Specific binding to BiP-Sepharose from normal pooled plasma” value under setting [6] was “specifically bound”.
In the case of “complement factor H isoform I [IPI00029739]”, under setting [6], the “Specific binding to BiP-Sepharose from normal pooled plasma” value is “specifically bound”.
For the substance haptoglobin [IPI00431645], the “Specific binding to BiP-Sepharose from control serum” value was “specifically bound”. Further, under setting [5], the “Specific binding to BiP-Sepharose from normal pooled plasma” value is reported as “specifically bound”. Further, under setting [6], the “Specific binding to BiP-Sepharose from normal pooled plasma” value is listed as “specifically bound”.
